From patent US6765105B2, “Compound and pharmaceutical composition of antiplasmid effect and the preparation thereof” (priority 2000, dated 2004)
“Also recorded” adds a separate entry of the source. Read-outs that look alike come from different tables or passages of the source. Marks after values point to notes of the source that are not given here.

Columns and labels:
[1] = system: RN 4220 S. aureus, plasmid pBI 109 PGL; assay type: cell-based; settings: without substance 68.7
[2] = system: F′lac plasmid of E. coli K12; assay type: cell-based
Method: (§1) We made a dilution of 10^−4 from a culture of 16 hours of the bacteria strain K12 LE140 of E. coli and we inoculated 0.05 ml (1 to 5×10^3 cells) of it into 5 ml of broth culture medium MTE. The cultures with plasmid eliminating compounds added in different concentrations were incubated at 37° C. during 24 hours. We made dilutions from the contents of tubes, in which growth of bacteria were detected, then 0.1 ml of these dilutions were streaked onto EMB agar. The plates were incubated at 37° C. during 24 hours, then we counted the settlements of bacteria of types lac^+ and lac^−, which provides basis to calculate the percent of inhibition.

[3] = system: E. coli K12 F′lac (PBR322) plasmid; assay type: cell-based
Method: (§2) We made a dilution of 10^−4 from a preliminary culture of 16 hours of E. coli strains containing R-factor, and dosed 0.05 ml therefrom into a broth culture medium MTE of 5 ml. We completed the cultures with the examined compounds in different concentrations and kept them at the temperature 37° C. during 24 to 48 hours without aeration. We made different dilutions from the cultures and streaked 0.1 ml of them onto EP agar plates. Having incubated them during the night we made a replication from the plates containing the cultures onto plates containing the corresponding antibiotics.
The plates containing antibiotics were incubated at 37° C. during 24 hours then the settlements of bacteria on them were compared to those on the master plates and the requirement of nutrition of the bacteria was examined.

[4] = system: RN 4220 S. aureus, plasmid pIP 855; assay type: cell-based; settings: without substance 1.8
[5] = system: RN 4220 S. aureus, plasmid pIP 856; assay type: cell-based; settings: without substance 2.3
[6] = system: RN 4220 S. aureus, plasmid pCRG 1600; assay type: cell-based; settings: without substance 2.1
[7] = system: plasmid; assay: In vitro experiments for antiplasmid effect (plasmid eliminating ability); assay type: cell-based; settings: for Plasmid eliminating ability: in concentration of 50 μg/ml; for Plasmid eliminating ability / Eliminating ability (in words): in vitro
From the text: The elimination of R-plasmids and F′lac plasmids, as well as inhibition of transmission of R-plasmid transfer were studied.
These are the compounds under mark FC-1181, FC-1186 and Sila-439. The compound sila-429 (75%) was compared against three representatively antibiotic resistant strains of bacteria, as follows: the polyresistant Acinetobacter anitratus, the resistant to gentamycine staphylococcus aureus and the Methycilline resistant Staphylococcus aureus strains.
as §2, §1

[8] = system: Escherichia coli (resistant to Chlorocid)
Method: (§3) The bacteriostatic effect was inspected on a liquid culture medium using method of serial dilution. We inoculated 0.05 ml of culture of the examined bacteria being in exponential phase (i.e. of optical density 0.4) in dilution by 10^−4 into broth culture medium MTE of 5 ml. The culture of E. coli of optical density 0.4 contained 4.1 to 5.2×10^8, the one of Staphylococcus aureus of similar density contained 2.2 to 8.2×10^7 settlement building units per ml. […] We examined thereafter the smallest concentration of each compound, which still inhibits the proliferation of the identical number of bacteria. The examinations for the antiplasmid effect could be begun after having been obtained the mentioned date, because these effects can be detected only at values lower than MIC.
(§4) The previously established MIC (minimal inhibiting concentration) values are as follows: […]

[9] = system: Acinetobactes anitratus (resistant to Chlorocid)
Method: as §3, §4

[10] = system: Staphylococcus aureus (resistant to gentamycine)
Method: as §3, §4

[11] = system: mice
Method: We used the usual dose of inoculation i.e. 0,2 ml per 10 g weight. […] The exact definition of this value should be done in an institute dealing with toxicology and clinical pharmacology.

[12] = system: E. coli; assay: Bacteriostatic effect (MIC), serial dilution in liquid culture medium; assay type: cell-based
[13] = system: E. coli K12 J5-3 (R386) donor to E. coliχ1037 recipient; settings: donor E. coli K12 J5-3 (R386)
Method: (§5) We made tenfold dilutions of fresh donor culture of E. coli C600 R144 drd-3 and of fresh recipient culture resistant to i^r and in some cases to nalid-x acid of E. coli K12 W1 at optical density of 0.4 ([…]), then we mixed together 1.0 ml of donor culture and 1.0 ml of recipient culture and kept the samples at the temperature 37° C. 0 to 24 hours in presence of the applied compounds.
(§6) As control the mixture of donor and recipient cultures of the same proportion was incubated.
(§7) We performed experiments of two types to clarify the manner of action. The donor cells were previously treated during 5 minutes with the compound to be examined being in corresponding concentration, and the recipient cells were added thereafter in the experiments of one type The compounds to be examined were added 5 minutes after mixing together the donor and recipient cultures in the experiments of the other type. The target of our examinations was the inhibition of the conjugated transfer at the formed pairs. We made tenfold dilutions of the samples with physiological saline solution, the formed pairs of cells were divided by shaking during 1 minute then we made following dilutions where no more resistance transfer passed (see. Beverley and fellow-workers, 1981).
(§8) We streaked quantities of 0.1 ml form the dilutions onto MTE agar plates containing 50 μg/ml of kanamycine and onto plates containing 500 μg/ml of sodium azide to determine the number of recombinants. The number of donor bacteria was established only on the culture medium containing kanamycine, the number of recipient ones was established only on the culture medium containing sodium azide. The plates were kept during 48 hours at 37° C.

[14] = system: E. coli K12 J5-3 (R27) donor to E. coliχ1037 recipient; settings: donor E. coli K12 J5-3 (R27)
Method: as §5, §6, §7, §8

[15] = system: E. coli K 12 F′lac1 donor to E coliχ1037 recipient
Method: as §5, §6, §7, §8

[16] = system: E. coli K12 F′lac2 donor to E. coliχ1037 recipient
Method: as §5, §6, §7, §8

[17] = system: E. coli K12 J5-3 (R16) donor to E. coliχ1037 recipient; settings: donor E. coli K12 J5-3 (R16)
Method: as §5, §6, §7, §8

[18] = concentration of elimination 62,5 mg/ml
[19] = concentration of elimination 312, mg/ml
[20] = dose of 500 mg/kg, intraperitoneal, 5 mice
[21] = concentration of elimination 25 mg/ml
[22] = concentration of elimination 33 mg/ml
[23] = concentration of elimination 18 mg/ml
[24] = second line for FC-2006/C, concentration of elimination not given

CC[n+]1c(-c2ccccc2)c2cc(N)ccc2c2ccc(N)cc21 [Ethidium bromide, reference compound]
Frequency of elimination (%) ([1]; plasmid pBI 109 PGL, 3.9 μg/ml): 88.2%
Frequency of elimination (%) Lac [2, 18]: 0%
Frequency of elimination (%) Lac [2, 19]: 0%
Frequency of elimination (%) ApTC [3, 18]: 24%
Frequency of elimination (%) TC [3, 18]: 30%
Frequency of elimination (%) ApTC [3, 19]: 0%
Frequency of elimination (%) TC [3, 19]: 10%
Frequency of elimination (%) ([4]; plasmid pIP 855, 1.95 μg/ml): 9.4%
Frequency of elimination (%) ([5]; plasmid pIP 856, 1.95 μg/ml): 12.3%
Frequency of elimination (%) ([6]; plasmid pCRG 1600, 62.5 μg/ml): 2.8%

C[N+](C)(C)CCOC(=O)c1ccc(OCCC[Si](C)(C)C)cc1.[I-] [Sila-439, 4-(3-trimethyl-silil-propyloxy)-benzoic acid-2-dimethyl-amino-ethyl-ester-methoiodide]
Concentration at which the antiplasmid effect manifests [7]: 40 µg/mL
Plasmid eliminating ability [7]: outstanding plasmid eliminating ability
Eliminating ability (in words) [7]: extraordinary good eliminating ability; also recorded: very good plasmid elimination effect
Antiplasmid effect in in vitro experiments ([7]; three compounds effective from 36 studied): effective
MIC (minimal inhibiting concentration) [8]: 0.07 mg/mL
MIC (minimal inhibiting concentration) [9]: 0.08 mg/mL
MIC (minimal inhibiting concentration) [10]: 180 μ/ml
Toxicity (i.p), mice alive per mice inoculated ([11]; 50 mg/kg (0.01 ml/mouse) i.p., 2 hours): 5/5
Toxicity (i.p), mice alive per mice inoculated ([11]; 50 mg/kg (0.01 ml/mouse) i.p., 6 hours): 5/5
Toxicity (i.p), mice alive per mice inoculated ([11]; 50 mg/kg (0.01 ml/mouse) i.p., 9 hours): 5/5
Toxicity (i.p), mice alive per mice inoculated ([11]; 50 mg/kg (0.01 ml/mouse) i.p., 12 hours): 5/5
Toxicity (i.p), mice alive per mice inoculated ([11]; 50 mg/kg (0.01 ml/mouse) i.p., 24 hours): 5/5
Toxicity (i.p), mice alive per mice inoculated ([11]; 500 mg/kg (0.1 ml/mouse) i.p., 2 hours): 0/5
Condition of the mice after inoculation ([11]; dose of 50 mg/kg, intraperitoneal): lived and moved vividly exactly like those in the control group
Mortality after inoculation [11, 20]: all the five mice died
Spasms after inoculation [11, 20]: spasms occurred in the 5 inoculated mice in two minutes

CCCC[Si](C)(C)COc1ccc(C(=O)OCCC[N+](C)(C)C)cc1.[I-] [FC-2012, 4-(dimethyl-n-butyl-silil-methyloxy)-benzoic acid-3-dimethylamino-propyl-ester-methoiodide]
Eliminating ability (in words) [7]: good eliminating ability
Frequency of elimination (%) ([1]; plasmid pBI 109 PGL, 7.,8 μg/ml): 88.0%
Frequency of elimination (%) Lac [2, 21]: 0%
Frequency of elimination (%) Lac [2, 22]: 0%
Frequency of elimination (%) ApTC [3, 21]: 2%
Frequency of elimination (%) TC [3, 21]: 10%
Frequency of elimination (%) ApTC [3, 22]: 27%
Frequency of elimination (%) TC [3, 22]: 58%
MIC [12]: 39 mg/mL
Frequency of transfer ([13]; in concentration of 30 μg/ml, without substance 0.4): 0.6 × 10^−1***
Frequency of transfer ([14]; in concentration of 30 μg/ml, without substance 2.5 × 10^−4): 2.3 × 10^−4***
Frequency of transfer ([15]; donor E. coli K 12 F′lac1, in concentration of 15 μg/ml, without substance 0.8 × 10^−6): 0**
Frequency of transfer ([16]; donor E. coli K12 F′lac2, in concentration of 15 μg/ml, without substance 0.2 × 10^−5): 0**
Frequency of transfer ([17]; in concentration of 30 μg/ml, without substance 1.2 × 10^−2): 1 × 10^−3***
Frequency of elimination (%) ([4]; plasmid pIP 855, 7.8 μg/ml): 41.9%
Frequency of elimination (%) ([5]; plasmid pIP 856, 7.8 μg/ml): 34.6%
Frequency of elimination (%) ([6]; plasmid pCRG 1600, 7.8 μg/ml): 10.1%

4(dimethyl-n-butyl-silil-methyloxy)-benzoic acid-(3-pyridyl)-methylester-methoiodide [FC-2006/C]
Plasmid eliminating ability [7]: outstanding plasmid eliminating ability
Eliminating ability (in words) [7]: good eliminating ability
Eliminating effect ([7]; only to one E. coli plasmid): ~100%
Frequency of elimination (%) ([1]; plasmid pBI 109 PGL, 9.5 μg/ml): 94.4%
Frequency of elimination (%) Lac [2, 23]: 0%
Frequency of elimination (%) Lac [2, 24]: 0%
Frequency of elimination (%) ApTC [3, 23]: 0%
Frequency of elimination (%) TC [3, 23]: 0%
Frequency of elimination (%) ApTC [3, 24]: 0%
Frequency of elimination (%) TC [3, 24]: 0%
MIC [12]: 25 mg/mL
Frequency of transfer ([13]; in concentration of 24.7 μg/ml, without substance 0.5 × 10^−1): 0.9 × 10^−2
Frequency of transfer ([14]; in concentration of 24.7 μg/ml, without substance 0.2 × 10): 0.2 × 10^−1
Frequency of transfer ([15]; donor E. coli K 12 F′lac1, in concentration of 24.7 μg/ml, without substance 0.6 × 10^−6): 2.2 × 10^−6
Frequency of transfer ([16]; donor E. coli K12 F′lac2, in concentration of 24.7 μg/ml, without substance 0.6 × 10^−6): 3 × 10^−6
Frequency of transfer ([17]; in concentration of 24.7 μg/ml, without substance 0.3 × 10^−1): 0.3 × 10^−3
Frequency of elimination (%) ([4]; plasmid pIP 855, 9.5 μg/ml): 69.2%
Frequency of elimination (%) ([5]; plasmid pIP 856, 9.5 μg/ml): 75.1%
Frequency of elimination (%) ([6]; plasmid pCRG 1600, 9.5 μg/ml): 32.6%
